In brackets after ≈: the same amount, converted by molar mass.
Key:
[1] = tested on: Candida albicans; experiment: Antifungal activity against Candida albicans assessed as zone of inhibition at 50 ug/ml; format: functional; conditions: read-out: IZ
[2] = tested on: Escherichia coli; experiment: Antimicrobial activity against Escherichia coli assessed as zone of inhibition at 50 ug/ml; format: functional; conditions: read-out: IZ
[3] = tested on: Bacillus subtilis; experiment: Antimicrobial activity against Bacillus subtilis NCIM 2250 after 48 hrs by NCCLS protocol based method; format: functional; conditions: NCIM 2250, 48 h
[4] = tested on: Aspergillus niger; experiment: Antifungal activity against Aspergillus niger NCIM 545 after 48 hrs by NCCLS protocol based method; format: functional; conditions: NCIM 545, 48 h
[5] = tested on: Staphylococcus aureus; experiment: Antimicrobial activity against Staphylococcus aureus assessed as zone of inhibition at 50 ug/ml; format: functional; conditions: read-out: IZ
[6] = tested on: Candida albicans; experiment: Antifungal activity against Candida albicans MTCC 277 after 48 hrs by NCCLS protocol based method; format: functional; conditions: MTCC 277, 48 h
[7] = tested on: Escherichia coli; experiment: Antimicrobial activity against Escherichia coli ATCC 25922 after 48 hrs by NCCLS protocol based method; format: functional; conditions: ATCC 25922, 48 h
[8] = tested on: Aspergillus niger; experiment: Antifungal activity against Aspergillus niger assessed as zone of inhibition at 50 ug/ml; format: functional; conditions: read-out: IZ
[9] = tested on: MDA-MB-231; experiment: Growth inhibition of human MDA-MB-231 cells; format: functional
[10] = tested on: Bacillus subtilis; experiment: Antimicrobial activity against Bacillus subtilis; format: functional
[11] = tested on: Priestia megaterium; experiment: Antimicrobial activity against Bacillus megaterium; format: functional
[12] = tested on: SiHa; experiment: Growth inhibition of human SiHa cells; format: functional
[13] = tested on: PANC-1; experiment: Growth inhibition of human PANC1 cells; format: functional
[14] = tested on: Escherichia coli; experiment: Antimicrobial activity against Escherichia coli; format: functional
[15] = tested on: Micrococcus luteus; experiment: Antibacterial activity against Micrococcus luteus; format: functional
[16] = tested on: Salmonella typhimurium; experiment: Antimicrobial activity against Salmonella typhimurium; format: functional, Salmonella enterica subsp. enterica serovar Typhimurium; conditions: Salmonella enterica
[17] = tested on: Streptococcus agalactiae; experiment: Antimicrobial activity against Streptococcus agalactiae 55118 assessed as zone of inhibition at 100 ug/ml after 24 hrs by disc diffusion method; format: functional; conditions: Streptococcus agalactiae, 55118, 24 h; read-out: IZ
[18] = tested on: Staphylococcus aureus; experiment: Antimicrobial activity against Staphylococcus aureus ATCC 25923 assessed as zone of inhibition at 100 ug/ml after 24 hrs by disc diffusion method; format: functional; conditions: ATCC 25923, 24 h, read-out: IZ
[19] = tested on: Klebsiella pneumoniae; experiment: Antimicrobial activity against Klebsiella pneumoniae ATCC 700603 assessed as zone of inhibition at 100 ug/ml after 24 hrs by disc diffusion method; format: functional; conditions: ATCC 700603, 24 h, read-out: IZ
[20] = tested on: Aspergillus niger; experiment: Antifungal activity against Aspergillus niger; format: functional
[21] = tested on: Staphylococcus aureus; experiment: Antimicrobial activity against Staphylococcus aureus; format: functional
[22] = tested on: Candida albicans; experiment: Antifungal activity against Candida albicans; format: functional
[23] = tested on: Pseudomonas aeruginosa; experiment: Antimicrobial activity against Pseudomonas aeruginosa; format: functional

Row | SMILES | MIC [3] [µg/mL] | MIC [4] [µg/mL] | MIC [6] [µg/mL] | MIC [7] [µg/mL] | GI50 [9] [nM] | MIC [10] [µg/mL] | MIC [11] [µg/mL] | GI50 [12] [nM] | GI50 [13] [nM] | MIC [14] [µg/mL] | MIC [15] [µg/mL] | MIC [16] [µg/mL] | further results
1 | COC1=CC(=O)C[C@@H](C)[C@]12Oc1c(Cl)c(OC)cc(OC)c1C2=O [GRISEOFULVIN] | 10 (≈ 28.3 µM) | 10 (≈ 28.3 µM) | 10 (≈ 28.3 µM) | 10 (≈ 28.3 µM) | – | – | – | – | – | – | – | – | zone of inhibition at 50 µg/mL [1]: 21 to 24 mm; zone of inhibition at 50 µg/mL [2]: 21 to 24 mm; zone of inhibition at 50 µg/mL [5]: 21 to 24 mm; zone of inhibition at 50 µg/mL [8]: 21 to 24 mm
2 | CCOC(=O)C(C#N)C(c1cc2c(OC)cccc2n2nnnc12)P(=O)(OCC)OCC (centres undefined) | 10 to 20 (≈ 21.7 to 43.3 µM) | 10 to 20 (≈ 21.7 to 43.3 µM) | 10 to 20 (≈ 21.7 to 43.3 µM) | 10 to 20 (≈ 21.7 to 43.3 µM) | – | – | – | – | – | – | – | – | –
3 | CCOC(=O)C(C#N)C(c1cc2ccccc2n2nnnc12)P(=O)(OCC)OCC (centres undefined) | 10 to 20 (≈ 23.2 to 46.4 µM) | 10 to 20 (≈ 23.2 to 46.4 µM) | 10 to 20 (≈ 23.2 to 46.4 µM) | 10 to 20 (≈ 23.2 to 46.4 µM) | – | – | – | – | – | – | – | – | –
4 | O=C(O)c1cn(C2CC2)c2cc(N3CCN(C(=O)CCSc4nnnn4-c4ccc(F)c(F)c4F)CC3)c(F)cc2c1=O | – | – | – | – | ≤ 1000 | 15.6 (≈ 25.3 µM) | 15.6 (≈ 25.3 µM) | ≤ 1000 | ≤ 1000 | 15.6 (≈ 25.3 µM) | 15.6 (≈ 25.3 µM) | 15.6 (≈ 25.3 µM) | –
5 | COc1nc(N)nc(OC)c1Sc1nnnn1CC1CCCCC1 | – | – | – | – | – | – | – | – | – | – | – | – | zone of inhibition at 100 µg/mL [17]: 10 to 24 mm; zone of inhibition at 100 µg/mL [18]: 10 to 24 mm; zone of inhibition at 100 µg/mL [19]: 10 to 24 mm
6 | O=C(O)c1cn(C2CC2)c2cc(N3CCN(C(=O)CCSc4nnnn4Cc4ccccc4)CC3)c(F)cc2c1=O | – | – | – | – | ≤ 1000 | 15.6 (≈ 27 µM) | 15.6 (≈ 27 µM) | ≤ 1000 | ≤ 1000 | 15.6 (≈ 27 µM) | 15.6 (≈ 27 µM) | 15.6 (≈ 27 µM) | –
7 | COc1nc(N)nc(OC)c1Sc1nnnn1Cc1ccccc1 | – | – | – | – | – | – | – | – | – | – | – | – | zone of inhibition at 100 µg/mL [17]: 10 to 24 mm; zone of inhibition at 100 µg/mL [18]: 10 to 24 mm; zone of inhibition at 100 µg/mL [19]: 10 to 24 mm
8 | CCCCn1nnnc1Sc1c(OC)nc(N)nc1OC | – | – | – | – | – | – | – | – | – | – | – | – | zone of inhibition at 100 µg/mL [17]: 10 to 24 mm; zone of inhibition at 100 µg/mL [18]: 10 to 24 mm; zone of inhibition at 100 µg/mL [19]: 10 to 24 mm
9 | CCOC(=O)C(C#N)C(c1cc2ccc(CC)cc2n2nnnc12)P(=O)(OCC)OCC (centres undefined) | 10 to 20 (≈ 21.8 to 43.5 µM) | 10 to 20 (≈ 21.8 to 43.5 µM) | 10 to 20 (≈ 21.8 to 43.5 µM) | 10 to 20 (≈ 21.8 to 43.5 µM) | – | – | – | – | – | – | – | – | –
10 | CCOC(=O)C(C#N)C(c1cc2cc(OC)ccc2n2nnnc12)P(=O)(OCC)OCC (centres undefined) | 10 to 20 (≈ 21.7 to 43.3 µM) | 10 to 20 (≈ 21.7 to 43.3 µM) | 10 to 20 (≈ 21.7 to 43.3 µM) | 10 to 20 (≈ 21.7 to 43.3 µM) | – | – | – | – | – | – | – | – | –
11 | CCn1cc(C(=O)O)c(=O)c2cnc(N3CCN(C(=O)CCSc4nnnn4-c4ccc(Br)cc4)CC3)nc21 | – | – | – | – | 70 to 220 | – | – | 70 to 220 | 70 to 220 | – | – | – | –
12 | COc1cc(-n2nnnc2SCCC(=O)N2CCN(c3cc4c(cc3F)c(=O)c(C(=O)O)cn4C3CC3)CC2)cc(OC)c1OC | – | – | – | – | ≤ 1000 | 15.6 (≈ 23.9 µM) | 15.6 (≈ 23.9 µM) | ≤ 1000 | ≤ 1000 | 15.6 (≈ 23.9 µM) | 15.6 (≈ 23.9 µM) | 15.6 (≈ 23.9 µM) | –
13 | CCn1cc(C(=O)O)c(=O)c2cnc(N3CCNCC3)nc21 [PIPEMIDIC ACID] | – | – | – | – | – | 31.2 (≈ 103 µM) | 31.2 (≈ 103 µM) | – | – | 31.2 (≈ 103 µM) | 31.2 (≈ 103 µM) | 31.2 (≈ 103 µM) | –
14 | O=C(O)c1cn(C2CC2)c2cc(N3CCNCC3)c(F)cc2c1=O [CIPROFLOXACIN] | – | – | – | – | – | – | 25 to 50 (≈ 75.4 to 151 µM) | – | – | 25 to 50 (≈ 75.4 to 151 µM) | 25 to 50 (≈ 75.4 to 151 µM) | 25 to 50 (≈ 75.4 to 151 µM) | zone of inhibition at 50 µg/mL [1]: 19 to 20 mm; MIC [20]: 25 to 50 µg/mL (≈ 75.4 to 151 µM); zone of inhibition at 50 µg/mL [2]: 19 to 20 mm; zone of inhibition at 50 µg/mL [5]: 19 to 20 mm; MIC [21]: 25 to 50 µg/mL (≈ 75.4 to 151 µM); MIC [22]: 25 to 50 µg/mL (≈ 75.4 to 151 µM); MIC [23]: 25 to 50 µg/mL (≈ 75.4 to 151 µM); zone of inhibition at 50 µg/mL [8]: 19 to 20 mm
15 | O=C(O)c1cn(C2CC2)c2cc(N3CCN(C(=O)CCSc4nnnn4-c4ccccc4)CC3)c(F)cc2c1=O | – | – | – | – | ≤ 1000 | 15.6 (≈ 27.7 µM) | 15.6 (≈ 27.7 µM) | ≤ 1000 | ≤ 1000 | 15.6 (≈ 27.7 µM) | 15.6 (≈ 27.7 µM) | 15.6 (≈ 27.7 µM) | –
16 | CCOC(=O)C(C#N)C(c1cc2c(C)cccc2n2nnnc12)P(=O)(OCC)OCC (centres undefined) | 10 to 20 (≈ 22.5 to 44.9 µM) | 10 to 20 (≈ 22.5 to 44.9 µM) | 10 to 20 (≈ 22.5 to 44.9 µM) | 10 to 20 (≈ 22.5 to 44.9 µM) | – | – | – | – | – | – | – | – | –

From ChEMBL document CHEMBL4342421, “Current scenario of tetrazole hybrids for antibacterial activity” (Eur J Med Chem, 2019)
